Assay results from US6593357B1, “Pyrazole compositions useful as inhibitors of ERK” (Vertex Pharmaceuticals Incorporated, priority 2000, dated 2003).

Assays:
Assay type in all cases: biochemical
AKT = AKT inhibition, standard coupled enzyme assay
Protocol: Compounds were screened for their ability to inhibit AKT using a standard coupled enzyme assay (Fox et al., Protein Sci., (1998) 7, 2249). Assays were carried out in a mixture of 100 mM HEPES 7.5, 10 mM MgCl2, 25 mM NaCl , 1 mM DTT and 1.5% DMSO. Final substrate concentrations in the assay were 170 μM ATP (Sigma Chemicals) and 200 μM peptide (RPRAATF, American Peptide, Sunnyvale, Calif.). Assays were carried out at 30° C. and 45 nM AKT. Final concentrations of the components of the coupled enzyme system were 2.5 mM phosphoenolpyruvate, 300 μM NADH, 30 μg/ML pyruvate kinase and 10 μg/ml lactate dehydrogenase.
An assay stock buffer solution was prepared containing all of the reagents listed above, with the exception of AKT, DTT, and the test compound of interest. 56 μl of the stock solution was placed in a 384 well plate followed by addition of 1 μl of 2 mM DMSO stock containing the test compound (final compound concentration 30 μM). The plate was preincubated for about 10 minutes at 30° C. and the reaction initiated by addition of 10 μl of enzyme (final concentration 45 nM) and 1 mM DTT. Rates of reaction were obtained using a BioRad Ultramark plate reader (Hercules, Calif.) over a 5 minute read time at 30° C.

ERK2 = ERK2 (Homo sapiens, UniProt P28482); assay: ERK2 inhibition, spectrophotometric coupled-enzyme assay; settings: activated ERK2 10 nM, 65 μM ATP, 30° C., pH 7.5; read-out: ERK2 Inhibitory Activity (Ki class)
Aurora2 = target: T1, Aurora2 (Homo sapiens, UniProt O14965); assay: Aurora inhibition, standard coupled enzyme assay; settings: 40 μM ATP, 30° C.; read-out: Aurora2 Inhibitory Activity (IC50 class)
T1 sequence (O14965 1-403): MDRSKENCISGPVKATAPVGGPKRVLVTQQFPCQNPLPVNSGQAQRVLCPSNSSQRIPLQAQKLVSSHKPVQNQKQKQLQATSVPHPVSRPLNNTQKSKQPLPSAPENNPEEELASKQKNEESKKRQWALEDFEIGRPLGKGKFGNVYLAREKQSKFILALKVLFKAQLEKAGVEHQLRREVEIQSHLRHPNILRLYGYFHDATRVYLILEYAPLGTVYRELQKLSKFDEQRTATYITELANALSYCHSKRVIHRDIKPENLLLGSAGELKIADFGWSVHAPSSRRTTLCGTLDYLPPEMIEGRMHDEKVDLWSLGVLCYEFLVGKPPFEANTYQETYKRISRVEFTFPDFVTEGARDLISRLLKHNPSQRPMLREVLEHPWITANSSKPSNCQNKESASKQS
Protocol: Compounds were screened in the following manner for their ability to inhibit Aurora using a standard coupled enzyme assay. To an assay stock buffer solution containing 0.1M HEPES 7.5, 10 mM MgCl2, 25 mM NaCl, 2.5 mM phosphoenolpyruvate, 300 μM NADH, 30 μg/mL pyruvate kinase, 10 μg/mL lactate dehydrogenase, 40 μM ATP, and 800 μM peptide (LRRASLG, American Peptide, Sunnyvale, Calif.) was added a 30 μM solution of the compound in DMSO and the resulting mixture incubated at 30° C. for 10 min. The reaction was initiated by the addition of 10 μL of 70 nM Aurora and 1 mM DTT. The rates of reaction were obtained by monitoring absorbance at 340 nm over a 5 minute read time at 30° C. using a BioRad Ultramark plate reader (Hercules, Calif.). The IC50 was determined from the rate data as a function of inhibitor concentration.
The compound numbers correspond to the compound numbers in Table 1.

ERK2, sequence (P28482 whole entry): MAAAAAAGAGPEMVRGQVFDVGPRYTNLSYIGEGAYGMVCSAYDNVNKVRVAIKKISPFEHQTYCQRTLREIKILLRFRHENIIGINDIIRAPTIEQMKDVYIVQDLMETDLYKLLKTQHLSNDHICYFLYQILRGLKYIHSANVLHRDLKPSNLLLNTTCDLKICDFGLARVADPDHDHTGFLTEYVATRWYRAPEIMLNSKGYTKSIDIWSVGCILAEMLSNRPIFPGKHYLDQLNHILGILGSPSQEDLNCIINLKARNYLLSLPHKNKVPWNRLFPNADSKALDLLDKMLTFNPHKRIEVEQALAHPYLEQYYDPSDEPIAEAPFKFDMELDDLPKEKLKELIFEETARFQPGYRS

SMILES: NS(=O)(=O)c1ccc(CNC(=O)c2cc(-c3[nH]ncc3-c3cccc(Br)c3)c[nH]2)cc1 [II-94]
- inhibit AKT (AKT): inhibit AKT
- Ki (ERK2): < 1000 nM

SMILES: O=C(NOCc1ccccc1)c1cc(-c2[nH]ncc2-c2cccc(F)c2)c[nH]1 [II-89]
- inhibit AKT (AKT): inhibit AKT
- Ki (ERK2): < 1000 nM
- IC50 (Aurora2): < 5000 nM
